The text below walks through data of publication PMC11589483, “Preparation and anti-colon cancer effect of a novel curcumin analogue (CA8): in vivo and in vitro evaluation” (Frontiers in Pharmacology, 2024).

One series relates to liver cancer cells HepG2. In words: MTT antiproliferative assay, HepG2. It counts as cell-based. Particulars: Homo sapiens. The procedure: (§1) The human cancer cell lines A549, HepG2, MCF-7, Caco-2, and HeLa and the normal human liver cell line LO2 were all obtained from Shanghai Cell Bank of China. All cells were cultured in RPMI 1640 or DMEM supplemented with 10% fetal bovine serum, 100 U/mL penicillin, and 100 μg/mL streptomycin and incubated at 37°C under 5% CO2 (HEPA incubator class100 Thermo company). The medium was replaced three times a week. Cells used in all were in the exponential growth phase.
(§2) The cell inhibition rate was evaluated using the MTT assay. Briefly, cells were seeded in a 96-well plate at a density of 3–4 × 10^3 cells per well and incubated at 37°C for 24 h. The MCACs to be tested were dissolved in dimethyl sulfoxide (DMSO, Merck, Germany) and diluted to five concentrations (3.75, 7.5, 15, 30, 60 μM/L) with RPMI 1640 medium, with each dose analyzed in quadruplicate. The concentration of DMSO was always maintained below 1‰, a concentration that is nontoxic to cells. After incubation for 24 or 48 h, MTT reagent (5 mg/mL) was added to each well and the samples were incubated for 3 h at 37°C in the dark. The absorbance of formazan crystals dissolved in 150 µL of DMSO was measured at 570 nm using a microplate reader to identify the cytotoxic effect of the analogues.
Background: Formazan colour is commonly taken as a measure of viable cells.

For series [1], the system named is breast cancer cells MCF-7. In words: MTT antiproliferative assay, MCF-7. It counts as cell-based. The settings on record: Homo sapiens. The procedure: as §1, §2
Another series deals with lung cancer cells A549. Briefly: MTT antiproliferative assay, A549. Format: cell-based. Particulars: Homo sapiens. The method, then: as §1, §2
Series [2] relates to normal human liver cell line LO2. In words: MTT assay, normal liver cells LO2. Format: cell-based. The method, then:
as §1, §2

Series [3] has as its system cervical cancer cells HeLa. Briefly: MTT antiproliferative assay, HeLa. It counts as cell-based. The settings on record: Homo sapiens. The procedure: as §1, §2
In series [4] the test system is human cancer cell lines A549, HepG2, MCF-7, Caco-2, and HeLa. Briefly: MTT assay, panel of human cancer cell lines (statements in words). Particulars: five cancer cell lines, after 24 h of treatment, compared to CU. Format: cell-based. The method, then: as §1, §2
For series [5], the system named is colon cancer cells Caco-2. Briefly: MTT antiproliferative assay, Caco-2. It counts as cell-based, human. Particulars: for SI Caco2: logarithm of ratio IC50 LO2 / IC50 cancer cells; for IC50: Homo sapiens, read-out: IC50 Caco2. The method, then: as §1, §2
A short description of series [6]: Solubility in water by HPLC. It counts as physicochemical. Particulars: 25°C, mass of solute dissolved at saturation in 100 g of solvent. The procedure: The solubility of the synthesized compounds in water was determined using high performance liquid chromatography (HPLC). First, 1.000 g of each compound was accurately weighed, placed in 100 g of water, and stirred at 25°C for a period of time. Then, the reaction system was allowed to stand for 1 h. The supernatant was quantitatively taken, diluted with methanol to volume, and centrifuged, and the solubility was determined using HPLC.

For the next series, the system named is Caco-2 xenograft tumors. In words: In vivo anticancer activity, Caco-2 xenograft. Particulars: Caco-2 xenograft; CA8 100 mg/kg, CU 100 mg/kg, tegafur 50 mg/kg, gavage every other day. The method, then: Twenty 5-week-old male BALB nude mice purchased from SPF (Beijing) Biotechnology Co., Ltd. were used for the in vivo pharmacodynamic experiment of CA8. Caco-2 cells (6 × 10^6 cells in 100 μL PBS) were harvested and subcutaneously injected into the right hip of the mice. Then, they were divided into four groups when the tumor volume reached 100 mm^3 and treated with saline, CU (100 mg/kg), tegafur (50 mg/kg), or CA8 (100 mg/kg) via gavage every other day. Tumor size and body weight were measured and recorded every other day. At the end of the experiment, the mice were sacrificed and tumors were harvested and weighed. Tumor volumes were calculated by measuring length (L) and width (W) according to the following formula: V = 0.5 × L × W^2. The tumor tissue was embedded in paraffin, cut into slices, stained with HE, and observed under a light microscope.

Read-outs that look alike come from different tables or passages of the source.

The term IC50 denotes the concentration that inhibits the measured activity by half. `COc1ccc(/C=C2\CCC/C(=C\c3ccc(OC)nc3)C2=O)cn1` [CA3]: the 50% inhibitory concentration (IC50) is 30.6 ± 5.99 µM in the series on liver cancer cells HepG2 (HepG2, 24 h); 15.5 ± 0.42 µM in the series on liver cancer cells HepG2 (HepG2, 48 h); over 60 µM in series [1] (MCF7, 24 h); over 60 µM in series [1] (MCF7, 48 h); over 60 µM in the series with lung cancer cells A549 (A549, 24 h); over 60 µM in the series with lung cancer cells A549 (A549, 48 h). The concentration for half-maximal inhibition (IC50) in series [2] (24 h) was over 60 µM; in series [2] (48 h), over 60 µM; in series [3] (24 h) it was 29.6 ± 2.57 µM; in series [3] (48 h), 38.3 ± 1.11 µM; in [5] (Caco-2, 24 h), over 60 µM; in [5] (Caco-2, 48 h), 47.4 ± 0.91 µM. Also, in [4], the “cytotoxicity” value is “low toxicity”. In addition, the “SI Caco2” value in [5] (48 h) is listed as over 0.1.

For the molecule `COc1ccc(/C=C2\CN(C(C)C)C/C(=C\c3ccc(OC)nc3)C2=O)cn1` [CA5], the 50% inhibitory concentration (IC50) with liver cancer cells HepG2 (HepG2, 24 h) was over 60 µM; with liver cancer cells HepG2 (HepG2, 48 h), 2.18 ± 0.4 µM; in [1] (MCF7, 24 h) it was 30.1 ± 3.36 µM; in [1] (MCF7, 48 h), 4.94 ± 1.42 µM; with lung cancer cells A549 (A549, 24 h), 28 ± 0.77 µM; in the series on lung cancer cells A549 (A549, 48 h) it was 34.7 ± 1.89 µM. Further, the IC50 is 9.8 ± 0.51 µM in [2] (24 h); 6.9 ± 0.46 µM in [2] (48 h); 2.35 ± 0.09 µM in [3] (24 h); 1.81 ± 0.36 µM in series [3] (48 h); 14.7 ± 0.73 µM in series [5] (Caco-2, 24 h); 4.87 ± 0.19 µM in series [5] (Caco-2, 48 h). In series [6], this molecule gave a Solubility of 0.22 mg/100g. The “SI Caco2” value in series [5] (24 h) was −0.17; in [5] (48 h), 0.15.

As for `COc1ccc(/C=C/C(=O)CC(=O)/C=C/c2ccc(OC)nc2)cn1` [CA1], the half-maximal inhibitory concentration (IC50) in the series on liver cancer cells HepG2 (HepG2, 24 h) was over 60 µM; with liver cancer cells HepG2 (HepG2, 48 h), 46.9 ± 2.6 µM; in series [1] (MCF7, 24 h) it was over 60 µM; in series [1] (MCF7, 48 h) it was 47.3 ± 2.1 µM; with lung cancer cells A549 (A549, 24 h) it was over 60 µM; with lung cancer cells A549 (A549, 48 h), 28.6 ± 2.2 µM. The IC50 in series [2] (24 h) was over 60 µM; in series [2] (48 h), 57.6 ± 4.83 µM; in [3] (24 h), over 60 µM; in series [3] (48 h) it was 56.5 ± 3.7 µM; in [5] (Caco-2, 24 h) it was over 60 µM; in series [5] (Caco-2, 48 h), over 60 µM. The molecule further showed a Solubility in [6] of 0.07 mg/100g. Further, the “cytotoxicity” value in series [4] is “low toxicity”.

`COc1cc(/C=C2\CN(C)C/C(=C\c3ccc(OC4CCCCO4)c(OC)c3)C2=O)ccc1OC1CCCCO1` (stereo not shown) [CA9]: the IC50 stood at 11.2 ± 0.5 µM with liver cancer cells HepG2 (HepG2, 24 h); 10.7 ± 1.6 µM in the series on liver cancer cells HepG2 (HepG2, 48 h); 22.2 ± 1.8 µM in [1] (MCF7, 24 h); 10.9 ± 1.3 µM in series [1] (MCF7, 48 h); 21.4 ± 2.7 µM with lung cancer cells A549 (A549, 24 h); 11.7 ± 0.5 µM in the series on lung cancer cells A549 (A549, 48 h). Moreover, the 50% inhibitory concentration (IC50) in [2] (24 h) stood at 15 ± 0.95 µM; in series [2] (48 h) it was 5 ± 0.09 µM; in series [3] (24 h) it was 8.4 ± 0.2 µM; in [3] (48 h) it was 4.3 ± 0.1 µM; in series [5] (Caco-2, 24 h), 3 ± 0.6 µM; in [5] (Caco-2, 48 h), 2.09 ± 0.32 µM. In addition, the Solubility in series [6] is given as 1.37 mg/100g. Besides, the “SI Caco2” value was found to be 0.70 in series [5] (24 h) and 0.38 in series [5] (48 h).

Consider `O=c1[nH]c(=O)n(C2CCCO2)cc1F` (stereo not shown) [tegafur, reference compound], for which the “inhibitory effect on tumor growth” value in the series with Caco-2 xenograft tumors is recorded as “CA8 > tegafur > CU”.

With `COc1ccc(/C=C2\CN(C)C/C(=C\c3ccc(OC)nc3)C2=O)cn1` [CA4], the 50% inhibitory concentration (IC50) in the series on liver cancer cells HepG2 (HepG2, 24 h) was 2.63 ± 0.38 µM; with liver cancer cells HepG2 (HepG2, 48 h), 1.95 ± 0.2 µM; in series [1] (MCF7, 24 h), 17 ± 1.6 µM; in series [1] (MCF7, 48 h) it was 7.8 ± 0.7 µM; in the series with lung cancer cells A549 (A549, 24 h), 22.9 ± 2.7 µM; in the series on lung cancer cells A549 (A549, 48 h), 12.5 ± 0.2 µM. The IC50 in series [2] (24 h) was 6.11 ± 0.33 µM; in series [2] (48 h), 2.5 ± 0.13 µM; in series [3] (24 h) it was 4.6 ± 0.5 µM; in [3] (48 h), 2.7 ± 0.5 µM; in series [5] (Caco-2, 24 h), 7.7 ± 1.8 µM; in series [5] (Caco-2, 48 h) it was 9.4 ± 1 µM. In series [6], this molecule displayed a Solubility of 2.63 mg/100g. The figures for the “SI Caco2” value in series [5] (24 h) and in series [5] (48 h) were −0.10 and −0.59, respectively.

For the molecule `Cc1cc(/C=C2\CN(C(C)C)C/C(=C\c3cc(C)c(O)c(C)c3)C2=O)cc(C)c1O` [CA7], the IC50 was found to be 22.7 ± 1.37 µM in the series with liver cancer cells HepG2 (HepG2, 24 h); 2.71 ± 0.49 µM in the series on liver cancer cells HepG2 (HepG2, 48 h); 54.2 ± 17.3 µM in series [1] (MCF7, 24 h); 18.2 ± 0.52 µM in series [1] (MCF7, 48 h); 36.1 ± 4.76 µM in the series with lung cancer cells A549 (A549, 24 h); 43.8 ± 5.13 µM in the series on lung cancer cells A549 (A549, 48 h). The concentration for half-maximal inhibition (IC50) amounted to 39.2 ± 1.67 µM in [2] (24 h); 8.4 ± 0.41 µM in series [2] (48 h); 5.26 ± 0.49 µM in series [3] (24 h); 1.26 ± 0.18 µM in [3] (48 h); 44.4 ± 7.38 µM in [5] (Caco-2, 24 h); 7.44 ± 0.49 µM in [5] (Caco-2, 48 h). The same molecule yielded a Solubility in series [6] of 3.29 mg/100g. For the same molecule, the “SI Caco2” value in series [5] (24 h) is given as −0.05; in series [5] (48 h) it was 0.05.

Take `Cc1cc(/C=C2\CNC/C(=C\c3cc(C)c(O)c(C)c3)C2=O)cc(C)c1O` [CA6]: the IC50 with liver cancer cells HepG2 (HepG2, 24 h) was 50.4 ± 15.1 µM; with liver cancer cells HepG2 (HepG2, 48 h), 9.28 ± 0.68 µM; in series [1] (MCF7, 24 h), over 60 µM; in series [1] (MCF7, 48 h), over 60 µM; with lung cancer cells A549 (A549, 24 h), over 60 µM; with lung cancer cells A549 (A549, 48 h), over 60 µM. Besides, the 50% inhibitory concentration (IC50) in series [2] (24 h) was over 60 µM; in series [2] (48 h), over 60 µM; in series [3] (24 h), over 60 µM; in series [3] (48 h) it was over 60 µM; in [5] (Caco-2, 24 h), over 60 µM; in [5] (Caco-2, 48 h), over 60 µM. In addition, the Solubility in series [6] is recorded as 15.04 mg/100g. For the same molecule, the “cytotoxicity” value in series [4] is listed as “low toxicity”.

For the molecule `COc1ccc(/C=C/C(=O)/C=C/c2ccc(OC)nc2)cn1` [CA2], the IC50 in the series with liver cancer cells HepG2 (HepG2, 24 h) turned out to be 25.2 ± 1 µM; in the series on liver cancer cells HepG2 (HepG2, 48 h), 19.8 ± 0.4 µM; in series [1] (MCF7, 24 h), 21.3 ± 3.1 µM; in [1] (MCF7, 48 h), 16.8 ± 0.6 µM; in the series on lung cancer cells A549 (A549, 24 h), 25.9 ± 1.3 µM; in the series with lung cancer cells A549 (A549, 48 h), 16.1 ± 0.8 µM. Also, the half-inhibitory concentration (IC50) in series [2] (24 h) came out at 31 ± 0.41 µM; in series [2] (48 h), 17.5 ± 1.09 µM; in series [3] (24 h), 18.1 ± 0.8 µM; in series [3] (48 h), 18.1 ± 0.8 µM; in series [5] (Caco-2, 24 h), 15.8 ± 0.3 µM; in series [5] (Caco-2, 48 h) it was 10.4 ± 0.7 µM. In series [6], this molecule displayed a Solubility of 0.42 mg/100g. For the same molecule, the figures for the “SI Caco2” value in [5] (24 h) and in [5] (48 h) were 0.29 and 0.23, respectively.
